Results from PubChem BioAssay (NCI).
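Protocol summary: plate cells (96-well), add compound at 5 concentrations, incubate 48 h, interpolate endpoints linearly. The concentration for full growth arrest is given as TGI.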

Key:
Experiment in all cases: inhibition of tumour cell growth, NCI panel, 48 h
[1] = test system: SF-295 CNS
[2] = test system: RPMI-8226 leukemia
[3] = test system: SN12C renal
[4] = test system: HCT-15 colon
[5] = test system: M14 melanoma
[6] = test system: K-562 leukemia
[7] = test system: KM12 colon
[8] = test system: IGROV1 ovarian
[9] = test system: SF-539 CNS
[10] = test system: OVCAR-5 ovarian
[11] = test system: HCT-116 colon
[12] = test system: PC-3 prostate
[13] = test system: NCI-H460 lung
[14] = test system: A498 renal
[15] = test system: HCC-2998 colon

| SMILES | TGI [1] [µM] | TGI [2] [µM] | TGI [3] [µM] | TGI [4] [µM] | TGI [5] [µM] | TGI [6] [µM] | TGI [7] [µM] | TGI [8] [µM] | TGI [9] [µM] | TGI [10] [µM] | TGI [11] [µM] | TGI [12] [µM] | TGI [13] [µM] | TGI [14] [µM] | TGI [15] [µM] |
| --- | --- | --- | --- | --- | --- | --- | --- | --- | --- | --- | --- | --- | --- | --- | --- |
| CC1=NN2C(=O)CC(=O)N=C2S1 | > 100 | > 100 | > 100 | > 100 | > 100 | > 100 | > 100 | > 100 | > 100 | > 100 | > 100 | > 100 | > 100 |  |  |
| NC12CC3CC(C1)CC(Cl)(C3)C2 |  | > 100 |  |  | > 100 | > 100 | > 100 | > 100 | > 100 | > 100 | > 100 |  | > 100 | > 100 | > 100 |
| COc1ccc(C2CCC(Cl)(OC)CC2C=O)cc1 (stereo not given) | > 100 | > 100 | > 100 | > 100 | > 100 | > 100 | > 100 | > 100 | > 100 | > 100 | > 100 |  | > 100 | > 100 | > 100 |
| COC(=O)[C@H]1C=C[C@@H](C)n2c(=O)c3ccccc3c(=O)n21 | > 100 | > 100 | > 100 | > 100 | > 100 | > 100 | > 100 | > 100 | > 100 | > 100 | > 100 |  | > 100 | > 100 | > 100 |
| Nc1nc(Cl)cc(NCC2(CO)CCC2)n1 | > 100 | > 100 | > 100 | > 100 |  | > 100 | > 100 | > 100 | > 100 | > 100 | > 100 | > 100 | > 100 |  | > 100 |
| CC(=O)OC1OC2C(NC(=O)OC(C)(C)C)C1CC2(OCc1ccccc1)OCc1ccccc1 (stereo not given) | > 91.5 | 43.3 | 75.2 | > 100 | 50.6 | > 94.8 | 71.5 | 90.3 | 33.8 | 82.4 | 31.6 |  | > 100 | > 82.9 | 40.7 |
| CCOC(=O)C1=C(O)c2ccccc2C(=O)C1=O | > 100 | > 100 | > 100 | > 100 | > 100 | > 100 | > 100 | > 100 | > 100 | > 100 | > 100 |  | > 100 | > 100 | > 100 |
| OCC(O)COc1c(Cl)ccc(Cl)c1Cl (stereo not given) | > 100 |  | > 100 | > 100 | > 100 | > 100 | > 100 | > 100 | > 100 | > 100 | > 100 |  | > 100 | > 100 | > 100 |
| COc1ccc(/C=C2\N=C(c3ccccc3)N(Nc3nnc(NN4C(=O)/C(=C/c5ccc(OC)cc5)N=C4c4ccccc4)c4ccccc34)C2=O)cc1 | > 100 | > 100 | > 100 | > 100 | > 100 | > 100 | 54.3 | > 100 | > 100 | > 100 | > 100 |  | > 100 | > 100 |  |
| CN(C)CCCSc1c2ccccc2nc2cc(NCC(=O)Nc3ccccc3-c3ccccc3NC(=O)CNc3ccc4c(SCCCN(C)C)c5ccccc5nc4c3)ccc12 | > 100 | > 100 | > 100 | > 100 | > 100 | > 100 | > 100 | > 100 | > 100 | > 100 | > 100 |  | > 100 | > 100 | > 100 |
| NC(=O)C12C3C4C1C1C2C3C41C(N)=O (stereo not given) | > 100 | > 100 | > 100 | > 100 | > 100 | > 100 | > 100 | > 100 | > 100 | > 100 | > 100 |  | > 100 | > 100 | > 100 |
| CC1=CC2(O)OC3(CC2=C(C)C)C(C)CCC13 (stereo not given) | > 100 | > 100 | > 100 | > 100 | > 100 | > 100 | > 100 | > 100 | > 100 | > 100 | > 100 |  |  | > 100 |  |
| CC(=O)c1c(O)ccc2c1CC(CC=O)O2 (stereo not given) | > 100 | > 100 | > 100 | > 100 | > 100 | > 100 | > 100 | > 100 | > 100 | > 100 | 41.4 |  | > 100 |  | > 100 |
| COC1=CC(C2c3cc4c(cc3[C@@H](Nc3ccc([N+](=O)[O-])cc3)C3COC(=O)[C@H]23)OCO4)=CC(=O)C1=O (stereo not given in full) | 7.47 | > 100 | 7.59 | 34.1 | > 37.7 | > 96.6 | 26.4 | > 65.2 | 6.05 | 41 | 27.5 |  | 7.08 | 6.23 | 14.5 |
| CC1=Nc2c([nH]c(=S)[nH]c2=O)NC(c2ccc(Cl)c(Cl)c2)C1 (stereo not given) | 46.3 | > 100 | 43.9 | > 60.1 | 31.3 | > 100 | 32.3 | 40.8 | 46.5 | > 100 | 30.1 |  | > 100 | 33.3 | 32 |
| Cc1nccc2c1cnc1ccnn12 |  | > 100 | > 100 | > 100 | > 100 | > 100 | > 100 | > 100 | > 100 | > 100 | > 100 |  | > 100 | > 100 | > 100 |
| CCOC(=O)c1nnsc1NC(=O)Nc1ccc(Cl)cc1 |  | > 100 | > 100 | > 100 | > 100 | > 100 | > 100 | > 100 |  | > 100 | 70.5 | > 100 | 32.1 |  | > 100 |
| NC1=NC2(O)c3ccccc3C(=O)C2(O)N1 (stereo not given) | > 100 | > 100 | > 100 | > 100 | > 100 | > 100 | > 100 | > 100 | > 100 | > 100 | > 100 |  | > 100 | > 100 |  |
| COc1ccc(C2CC(=O)Oc3ccccc3O2)cc1 (stereo not given) | > 100 | > 100 | > 100 | > 100 |  | > 100 | > 100 | > 100 | > 100 |  | > 100 | > 100 | > 100 |  | > 100 |
| O=C1C(Cl)C(c2ccc(Cl)cc2)N1n1cnc2ccccc2c1=O (stereo not given) | > 100 | > 100 | > 100 | > 100 | > 100 | > 100 | > 100 | > 100 |  | > 100 | > 100 |  | > 100 |  | > 100 |
| O=C(O)c1cc(-c2ccccc2O)nc2ccccc12 | > 100 | > 100 | > 100 | > 100 | > 100 | > 100 | > 100 | > 100 | > 100 | > 100 | > 100 |  | > 100 | > 100 | > 100 |
| CCOC(OCC)c1ccc(/C=C/c2cc(OC)c(OC)c(OC)c2)cc1 | 40.4 | 63 | 36.9 | 30.7 | 31.9 | 39.8 |  | > 100 | 29.8 | 55.7 | 30.7 |  | 38.1 | 45.4 |  |
| COc1cccc(/C(C=O)=C(\Cl)c2ccc(OC)c(OC)c2)c1 | 28.9 | 48.8 | 27.8 | 25.6 | 31.6 | 46.2 | 29.1 | 41.8 | 30.4 | 36.9 | 22.5 |  | 28 |  | 29.8 |
| O=C(/C=C/c1c(O)ccc2ccccc12)c1cccc2ccccc12 | > 100 | > 78 | > 100 | > 100 | > 100 | > 88.6 | > 100 | > 100 | > 100 | > 100 | > 100 |  | > 100 | > 100 | > 100 |
| CCOC(=O)c1nc2ccc(Cl)cc2c2c1CCO2 | > 100 |  | > 100 | > 100 | > 100 | > 100 | > 100 | > 100 | > 100 | > 100 | > 100 |  | > 100 | > 100 | > 100 |
| NC(=O)C(=CN1C(=O)CC(=O)NC1=S)C(N)=O | > 100 |  | > 100 | > 100 | > 100 |  | > 100 | > 100 | > 100 | > 100 | > 100 |  | > 100 | > 100 | > 100 |
